Results published in ChEMBL document CHEMBL1122221, “Antimycotic azoles. 6. Synthesis and antifungal properties of terconazole, a novel triazole ketal” (1983).

Key:
[1] = system: Rattus norvegicus; test: Evaluated for cure against vaginal candidosis after topical treatment with 1% of compound in a group of 10 rats; assay type: functional
[2] = system: Saprolegnia; test: Concentration for complete inhibition of growth of Saprolegnia sp.; assay type: functional, organism-based
[3] = system: Candida tropicalis; test: Concentration for complete inhibition of growth of Candida tropicalis; assay type: functional, organism-based
[4] = system: Rattus norvegicus; test: Evaluated for marked improvement against vaginal candidosis after topical treatment with 0.5% of compound in a group of 10 rats; assay type: functional
[5] = system: Cavia porcellus; test: Evaluated for marked improvement against trichophytosis after topical treatment with 0.5% of compound in a group of 6 guinea pigs; assay type: functional
[6] = system: Cavia porcellus; test: Evaluated for cure against trichophytosis after topical treatment with 1% of compound in a group of 6 guinea pigs; assay type: functional
[7] = system: Microsporum canis; test: Concentration for complete inhibition of growth of Microsporum canis; assay type: functional, organism-based
[8] = system: Cryptococcus neoformans; test: Concentration for complete inhibition of growth of Cryptococcus neo formans; assay type: functional, organism-based
[9] = system: Mucor; test: Concentration for complete inhibition of growth of Mucor sp.; assay type: functional
[10] = system: Candida albicans; test: Concentration for complete inhibition of growth of Candida albicans; assay type: functional, organism-based
[11] = system: Cavia porcellus; test: Evaluated for cure against microsporosis after topical treatment with 1% of compound in a group of 8 guinea pigs; assay type: functional
[12] = system: Aspergillus fumigatus; test: Concentration for complete inhibition of growth of Aspergillus fumigatus; assay type: functional, organism-based
[13] = system: Cavia porcellus; test: Evaluated for marked improvement against microsporosis after topical treatment with 0.5% of compound in a group of 8 guinea pigs; assay type: functional
[14] = system: Sporothrix schenckii; test: Concentration for complete inhibition of growth of Sporo thrix schenck ii; assay type: functional, organism-based
[15] = system: Phialophora verrucosa; test: Concentration for complete inhibition of growth of Phialophora uerrucosa; assay type: functional, organism-based
[16] = system: Trichophyton rubrum; test: Concentration for complete inhibition of growth of Trichophyton rubrum; assay type: functional, organism-based
[17] = system: Trichophyton benhamiae; test: Concentration for complete inhibition of growth of Trichophyton mentagrophytes; assay type: functional, organism-based; settings: Arthroderma benhamiae
[18] = system: Trichophyton benhamiae; test: Concentration for marked inhibition of growth of Trichophyton mentagrophytes in Sabouraud broth; assay type: functional, organism-based; settings: Arthroderma benhamiae
[19] = system: Candida albicans; test: Concentration for marked inhibition of growth of Candida albicans in Sabouraud broth with 10% inactive bovine serum; assay type: functional, organism-based
[20] = system: Trichophyton rubrum; test: Concentration for marked inhibition of growth of Trichophyton rubrum in Sabouraud broth with 10% inactive bovine serum; assay type: functional, organism-based
[21] = system: Rattus norvegicus; test: Evaluated for marked improvement against vaginal candidosis after 3 days of 2 times a day topical treatment with 0.5% of compound in a group of 48 rats; Improved; assay type: functional
[22] = system: Trichophyton benhamiae; test: Concentration for marked inhibition of growth of Trichophyton mentagrophytes in Sabouraud broth with 10% inactive bovine serum; assay type: functional, organism-based; settings: Arthroderma benhamiae
[23] = system: Candida tropicalis; test: Concentration for marked inhibition of growth of Candida tropicalis in Sabouraud broth; assay type: functional, organism-based
[24] = system: Aspergillus fumigatus; test: Concentration for marked inhibition of growth of Aspergillus fumigatus in Sabouraud broth with 10% inactive bovine serum; assay type: functional, organism-based
[25] = system: Sporothrix schenckii; test: Concentration for marked inhibition of growth of Sporo thrix schenck ii in Sabouraud broth; assay type: functional, organism-based
[26] = system: Rattus norvegicus; test: Evaluated for cure against vaginal candidosis after 3 days of 2 times a day topical treatment with 0.5% of compound in a group of 48 rats; assay type: functional
[27] = system: Mucor; test: Concentration for marked inhibition of growth of Mucor sp. in Sabouraud broth with 10% inactive bovine serum; assay type: functional
[28] = system: Phialophora verrucosa; test: Concentration for complete inhibition of growth of Phialophora verrucosa; assay type: functional, organism-based
[29] = system: Candida tropicalis; test: Concentration for complete inhibition of growth of Candida tropicalis in Sabouraud broth with 10% inactive bovine serum; assay type: functional, organism-based
[30] = system: Microsporum canis; test: Concentration for complete inhibition of growth of Microsporum canis in Sabouraud broth with 10% inactive bovine serum; assay type: functional, organism-based
[31] = system: Trichophyton benhamiae; test: Concentration for complete inhibition of growth of Trichophyton mentagrophytes in Sabouraud broth with 10% inactive bovine serum; assay type: functional, organism-based; settings: Arthroderma benhamiae
[32] = system: Cavia porcellus; test: Evaluated for cure against trichophytosis after 12 days of one time a day topical treatment with 0.5% of compound in a group of 20 guinea pigs; assay type: functional
[33] = system: Saprolegnia; test: Concentration for complete inhibition of growth of Saprolegnia sp. in Sabouraud broth with 10% inactive bovine serum; assay type: functional, organism-based
[34] = system: Candida tropicalis; test: Concentration for marked inhibition of growth of Candida tropicalis in Sabouraud broth with 10% inactive bovine serum; assay type: functional, organism-based
[35] = system: Aspergillus fumigatus; test: Concentration for marked inhibition of growth of Aspergillus fumigatus in Sabouraud broth; assay type: functional, organism-based
[36] = system: Phialophora verrucosa; test: Concentration for complete inhibition of growth of Phialophora verrucosa in Sabouraud broth with 10% inactive bovine serum; assay type: functional, organism-based
[37] = system: Microsporum canis; test: Concentration for marked inhibition of growth of Microsporum canis in Sabouraud broth with 10% inactive bovine serum; assay type: functional, organism-based
[38] = system: Microsporum canis; test: Concentration for marked inhibition of growth of Microsporum canis in Sabouraud broth; assay type: functional, organism-based
[39] = system: Saprolegnia; test: Concentration for marked inhibition of growth of Saprolegnia sp. in Sabouraud broth with 10% inactive bovine serum; assay type: functional, organism-based
[40] = system: Cryptococcus neoformans; test: Concentration for complete inhibition of growth of Cryptococcus neoformans in Sabouraud broth with 10% inactive bovine serum; assay type: functional, organism-based
[41] = system: Trichophyton rubrum; test: Concentration for marked inhibition of growth of Trichophyton rubrum in Sabouraud broth; assay type: functional, organism-based
[42] = system: Candida albicans; test: Concentration for marked inhibition of growth of Candida albicans in Sabouraud broth; assay type: functional, organism-based
[43] = system: Phialophora verrucosa; test: Concentration for marked inhibition of growth of Phialophora verrucosa in Sabouraud broth; assay type: functional, organism-based
[44] = system: Mucor; test: Concentration for marked inhibition of growth of Mucor sp. in Sabouraud broth; assay type: functional
[45] = system: Aspergillus fumigatus; test: Concentration for complete inhibition of growth of Aspergillus fumigatus in Sabouraud broth with 10% inactive bovine serum; assay type: functional, organism-based
[46] = system: Sporothrix schenckii; test: Concentration for complete inhibition of growth of Sporothrix schenck ii in Sabouraud broth with 10% inactive bovine serum; assay type: functional, organism-based
[47] = system: Mucor; test: Concentration for complete inhibition of growth of Mucor sp. in Sabouraud broth with 10% inactive bovine serum; assay type: functional
[48] = system: Cavia porcellus; test: Evaluated for marked improvement against trichophytosis after 12 days of one time a day topical treatment with 0.5% of compound in a group of 20 guinea pigs; Improved; assay type: functional
[49] = system: Trichophyton rubrum; test: Concentration for complete inhibition of growth of Trichophyton rubrum in Sabouraud broth with 10% inactive bovine serum; assay type: functional, organism-based
[50] = system: Cavia porcellus; test: Evaluated for marked improvement against microsporosis after 12 days of one time a day topical treatment with 0.5% of compound in a group of 36 guinea pigs; Improved; assay type: functional
[51] = system: Candida albicans; test: Concentration for complete inhibition of growth of Candida albicans in Sabouraud broth with 10% inactive bovine serum; assay type: functional, organism-based
[52] = system: Cavia porcellus; test: Evaluated for cure against microsporosis after 12 days of one time a day topical treatment with 0.5% of compound in a group of 36 guinea pigs; assay type: functional
[53] = system: Cryptococcus neoformans; test: Concentration for marked inhibition of growth of Cryptococcus neoformans in Sabouraud broth; assay type: functional, organism-based
[54] = system: Sporothrix schenckii; test: Concentration for marked inhibition of growth of Sporothrix schenck ii in Sabouraud broth with 10% inactive bovine serum; assay type: functional, organism-based
[55] = system: Phialophora verrucosa; test: Concentration for marked inhibition of growth of Phialophora verrucosa in Sabouraud broth with 10% inactive bovine serum; assay type: functional, organism-based
[56] = system: Sporothrix schenckii; test: Concentration for complete inhibition of growth of Sporothrix schenck ii; assay type: functional, organism-based
[57] = system: Cryptococcus neoformans; test: Concentration for complete inhibition of growth of Cryptococcus neoformans; assay type: functional, organism-based
[58] = system: Saprolegnia; test: Concentration for marked inhibition of growth of Saprolegnia sp. in Sabouraud broth; assay type: functional, organism-based
[59] = system: Cryptococcus neoformans; test: Concentration for marked inhibition of growth of Cryptococcus neoformans in Sabouraud broth with 10% inactive bovine serum; assay type: functional, organism-based

Clc1ccccc1C(c1ccccc1)(c1ccccc1)n1ccnc1 [CLOTRIMAZOLE]
3: Cure [6]
2: Cure [1] | Improved [4]
> 100 µg/mL: Concentration [2] | Concentration [3] | Concentration [8] | Concentration [9] | Concentration [10] | Concentration [14] | Concentration [15]
4: Cure [11]
100 µg/mL: Concentration [12]
1: Improved [5] | Improved [13]
< 1 µg/mL: Concentration [7] | Concentration [16] | Concentration [17]

CC(C)N1CCN(c2ccc(OCC3COC(Cn4cncn4)(c4ccc(Cl)cc4Cl)O3)cc2)CC1 (configuration not stated) [TERCONAZOLE]
100 µg/mL: Concentration [2] | Concentration [24] | Concentration [7] | Concentration [25] | Concentration [27] | Concentration [28] | Concentration [30] | Concentration [38] | Concentration [46] | Concentration [47] | Concentration [51] | Concentration [56] | Concentration [16]
0.1 µg/mL: Concentration [19] | Concentration [22] | Concentration [34] | Concentration [59]
35: Cure [26]
1 µg/mL: Concentration [18] | Concentration [20] | Concentration [23] | Concentration [29] | Concentration [31] | Concentration [39] | Concentration [40] | Concentration [53] | Concentration [54] | Concentration [55] | Concentration [17]
20: Cure [32]
17: Activity [50]
19: Cure [52]
2: Activity [21]
10 µg/mL: Concentration [3] | Concentration [33] | Concentration [36] | Concentration [37] | Concentration [41] | Concentration [42] | Concentration [43] | Concentration [49] | Concentration [57] | Concentration [58]
> 100 µg/mL: Concentration [9] | Concentration [10] | Concentration [35] | Concentration [44] | Concentration [45] | Concentration [12]
0: Activity [48]
